Measured values from the NIST ThermoML archive (doi:10.1016/j.jct.2019.03.009).

Experiment: mn = molality of the nth substance listed, in mol/kg
Details: 298.15 K, 101.3 kPa, Liquid, Taylor dispersion method

SMILES: CCC(N)C(=O)O (stereo not drawn) [(.+-.)-α-aminobutyric acid] + O
- binary diffusion coefficient (m1 = 0.001003): 8.42e-10 m2/s
- binary diffusion coefficient (m1 = 0.005014): 8.41e-10 m2/s
- binary diffusion coefficient (m1 = 0.01003): 8.39e-10 m2/s
- binary diffusion coefficient (m1 = 0.02005): 8.38e-10 m2/s
- binary diffusion coefficient (m1 = 0.05008): 8.35e-10 m2/s
- binary diffusion coefficient (m1 = 0.1): 8.32e-10 m2/s
